# Measured values published in patent US11274091B2 (Dizal (Jiangsu) Pharmaceutical Co., Ltd., priority 2018, dated 2022).
# Legend:
# human TRPC3 ion channel = human TRPC3 ion channel (Homo sapiens (Human), UniProt Q13507); test: Inhibition of TRPC3 FLIPR Assay (membrane potential dye, OAG challenge); type: cell-based; conditions: TRPC3 transfected AD293 cells, OAG at EC80; most potent isolated isomer; mean of minimum 2 experiments
# From the text: (§1) TRPC3 and TRPC6 channel opening causes an influx of predominantly calcium and sodium cations that result in a change in the electrical potential across the cell membrane. This change in membrane potential can be monitored using membrane potential dyes in the following FLIPR™ (Fluorescent Imaging Plate Reader) assays.
# AD293 cells were transfected using the PLVX-puro lentivirus vector containing the coding sequence of the human TRPC3 ion channel. Puromycin-resistant cells were selected by treating with […] puromycin for two weeks. Monoclonal cells were obtained by limiting dilution and compared for their response to OAG in a membrane potential assay. The cells were grown in DMEM+10% fetal bovine serum (FBS)+1 μg/mL puromycin as culture medium.
# TRPC3 cells were plated at 9K/well into 384-well polystyrene plates. Cells were grown for 24 h at 37° C. plus 5% CO2 after which media was aspirated using a Tecan plate washer and replaced with 40 μL of dye loading buffer (130 mM NaCl, 5 mM KCl, 0.15 mM CaCl2, 1 mM MgCl2, 20 mM HEPES ((4-(2-hydroxyethyl)-1-piperazineethanesulfonic acid)), 5 mM NaHCO3). For TRPC3 a final concentration of 0.5× membrane potential dye (Molecular Devices Membrane Blue, FLIPR Membrane Potential Assay Kit (bulk), Product #R8034(BLUE), Molecular Devices, Sunnyvale, Calif., 94089, USA) was used. Cells with membrane potential dye were then incubated for 30 mins at room temperature prior to beginning the experiments.
# To test the effects of compounds on TRPC3 activity, compounds were first diluted in 100% DMSO to 3× the final concentration to be used in the experiments. Typical dose-response experiments ranged from 10 μM (top concentration) to 0.5 nM (lowest concentration). Ten microliters of 5× compound in 0.5% DMSO were added to 40 μL of cells incubated with membrane potential dye. Compound addition was performed on a FLIPRTetra or a FLIPR 384 (MDS Analytical Technologies). After a 400 second incubation with compound, 12.5 μL of OAG was added at 5× the EC80 (typical EC80 for TRPC3=2 μM final). The OAG challenge is designed to measure the inhibitory activity of compounds on receptor-operated TRPC3 activation.
# (§2) All data was normalized to low controls (buffer alone) or high controls (OAG EC100). Data was analyzed using an XC50 curve fitting module and reported as pIC50 or IC50 values. The values are averaged to determine a mean value, for a minimum of 2 experiments.
# human TRPC6 ion channel = human TRPC6 ion channel (Homo sapiens (Human), UniProt Q9Y210); test: Inhibition of TRPC6 FLIPR Assay (membrane potential dye, OAG challenge); type: cell-based; conditions: TRPC6-HEK293 cells, OAG at EC80; most potent isolated isomer; mean of minimum 2 experiments
# From the text: as §1
# TRPC6-HEK293 was purchased from PerkinElmer (PerkinElmer, Product No.: AX-012-C), HEK293 cells were transfected using the pcDNA3.1(+)expression vector containing the coding sequence of the human TRPC6 ion channel. The coding sequence used is identical to coding sequence of GenBank NM_004621 with the exception of 2 synonym variations (t1683c and c2529t). The cells were grown in DMEM+10% fetal bovine serum (FBS) 0.5 mg/ml. Geneticin (ion channel expression selection) as culture medium.
# TRPC6 cells were plated at 10K cells/well into 384-well polystyrene plates and then grown for 24 hs at 37° C. plus 5% CO2. After this time the media was aspirated using a Tecan plate washer and then replaced with 40 μL of dye loading buffer (130 mM NaCl, 5 mM KCl, 0.15 mM CaCl2, 1 mM MgCl2, 20 mM HEPES ((4-(2-hydroxyethyl)-1-piperazineethanesulfonic acid)), 5 mM NaHCO3). For TRPC6, a final concentration of 0.5× is used. Cells with membrane potential dye were then incubated for 30 mins at room temperature prior to beginning the experiments.
# To test the effects of compounds on TRPC6 activity, compounds were first diluted in 100% DMSO to 3× the final concentration to be used in the experiments. Typical dose-response experiments ranged from 10 μM (top concentration) to 0.5 nM (lowest concentration). Ten microliters of […] compound in 0.5% DMSO were added to 40 μL of cells incubated with membrane potential dye. Compound addition was performed on a FLIPRTetra or a FLIPR 384 (MDS Analytical Technologies, Molecular Devices, Sunnyvale, Calif., 94089, USA). After a 400 second incubation with compound, […] OAG (1-oleoyl-2-acetyl-sn-glycerol (OAG), Sigma, Gillingham, Dorset, SP8 4XT Cat #O6754-10 MG) was added at 5× the EC80 (typical EC80 for TRPC6=3 μM final). The OAG challenge is designed to measure the inhibitory activity of compounds on receptor-operated TRPC6 activation.
# as §2
# human TRPC3 ion channel, sequence (Q13507 whole entry): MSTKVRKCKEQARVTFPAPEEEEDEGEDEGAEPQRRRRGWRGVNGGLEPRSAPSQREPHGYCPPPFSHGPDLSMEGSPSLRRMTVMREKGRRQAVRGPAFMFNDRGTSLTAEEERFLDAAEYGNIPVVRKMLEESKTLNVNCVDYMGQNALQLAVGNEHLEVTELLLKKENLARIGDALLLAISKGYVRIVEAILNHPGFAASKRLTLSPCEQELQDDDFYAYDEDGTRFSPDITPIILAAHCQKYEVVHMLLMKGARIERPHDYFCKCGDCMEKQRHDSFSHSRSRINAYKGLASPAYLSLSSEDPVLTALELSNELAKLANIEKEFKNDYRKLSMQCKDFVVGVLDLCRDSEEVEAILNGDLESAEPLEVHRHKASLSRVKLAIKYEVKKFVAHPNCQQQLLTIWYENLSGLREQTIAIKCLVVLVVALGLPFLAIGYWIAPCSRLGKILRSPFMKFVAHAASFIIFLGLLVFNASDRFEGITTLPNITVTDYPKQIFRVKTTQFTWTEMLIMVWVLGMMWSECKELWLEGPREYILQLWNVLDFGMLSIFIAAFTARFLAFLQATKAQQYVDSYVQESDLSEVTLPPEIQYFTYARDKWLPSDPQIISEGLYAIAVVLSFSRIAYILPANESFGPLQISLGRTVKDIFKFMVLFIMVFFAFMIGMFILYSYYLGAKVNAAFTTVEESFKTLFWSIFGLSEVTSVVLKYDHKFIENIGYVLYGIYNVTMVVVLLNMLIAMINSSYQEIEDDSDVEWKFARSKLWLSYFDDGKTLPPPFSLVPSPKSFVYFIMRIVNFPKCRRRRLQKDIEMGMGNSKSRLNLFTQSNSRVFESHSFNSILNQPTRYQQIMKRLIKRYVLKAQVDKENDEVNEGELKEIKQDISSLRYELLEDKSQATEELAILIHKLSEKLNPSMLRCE
# human TRPC6 ion channel, sequence (Q9Y210 whole entry): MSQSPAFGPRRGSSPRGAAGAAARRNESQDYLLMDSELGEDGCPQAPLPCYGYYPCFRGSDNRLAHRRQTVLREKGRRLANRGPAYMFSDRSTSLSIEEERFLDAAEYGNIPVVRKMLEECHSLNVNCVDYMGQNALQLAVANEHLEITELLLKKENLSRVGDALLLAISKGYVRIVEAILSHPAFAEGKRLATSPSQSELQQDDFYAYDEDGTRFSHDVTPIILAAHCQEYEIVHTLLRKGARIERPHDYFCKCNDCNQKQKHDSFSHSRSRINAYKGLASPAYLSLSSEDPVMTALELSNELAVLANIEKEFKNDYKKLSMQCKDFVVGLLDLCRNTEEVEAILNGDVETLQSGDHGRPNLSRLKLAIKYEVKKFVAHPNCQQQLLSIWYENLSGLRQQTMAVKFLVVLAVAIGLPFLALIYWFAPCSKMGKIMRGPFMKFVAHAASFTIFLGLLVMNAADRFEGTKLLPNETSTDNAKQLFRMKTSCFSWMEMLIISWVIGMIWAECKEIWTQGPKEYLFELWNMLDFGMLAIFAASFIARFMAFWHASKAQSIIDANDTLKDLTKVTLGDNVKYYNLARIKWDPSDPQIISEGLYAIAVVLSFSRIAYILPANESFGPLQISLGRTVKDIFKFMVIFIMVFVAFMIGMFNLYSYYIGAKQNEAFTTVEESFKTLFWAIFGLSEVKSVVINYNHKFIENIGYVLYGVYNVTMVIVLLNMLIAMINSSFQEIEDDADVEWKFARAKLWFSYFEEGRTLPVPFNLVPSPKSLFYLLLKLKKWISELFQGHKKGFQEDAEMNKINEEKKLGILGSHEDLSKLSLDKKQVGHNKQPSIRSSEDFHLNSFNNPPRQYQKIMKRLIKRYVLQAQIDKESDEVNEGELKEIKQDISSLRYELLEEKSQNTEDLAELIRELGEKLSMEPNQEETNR
SMILES,IC50 (human TRPC3 ion channel) [µM],IC50 (human TRPC6 ion channel) [µM]
"N#Cc1ccc(OC2CC(c3ccc(F)cc3)CC2N2CCC[C@@H](N)C2)nc1 (single isomer, unassigned) [Example 26]",0.0255,0.00951
"NC1CCCN(C2CC(c3ccc(F)cc3)CC2n2nccn2)C1 (stereo not drawn) [Example 1, 1-[4-(4-fluorophenyl)-2-(triazol-2-yl)cyclopentyl]piperidin-3-amine]",0.0177,0.00337
"N#Cc1cnn(C2CC(c3ccc(F)cc3)CC2N2CCCC(N)C2)c1 (stereo not drawn) [Example 2, 1-[2-(3-amino-1-piperidyl)-4-(4-fluorophenyl)cyclopentyl]pyrazole-4-carbonitrile]",0.00831,0.00797
"N#Cc1ccn(C2CC(c3ccc(F)cc3)CC2N2CCCC(N)C2)n1 (stereo not drawn) [Example 3, 1-[2-(3-amino-1-piperidyl)-4-(4-fluorophenyl)cyclopentyl]pyrazole-3-carbonitrile]",0.0464,< 0.0199
"N#Cc1ccn(C2CC(c3ccc(F)cc3)CC2N2CCCC(N)C2)c1 (stereo not drawn) [Example 4, 1-[2-(3-amino-1-piperidyl)-4-(4-fluorophenyl)cyclopentyl]pyrrole-3-carbonitrile]",0.00539,0.00531
"N#Cc1cn(C2CC(c3ccc(F)cc3)CC2N2CCCC(N)C2)nn1 (stereo not drawn) [Example 5, 1-[2-(3-amino-1-piperidyl)-4-(4-fluorophenyl)cyclopentyl]triazole-4-carbonitrile]",0.00428,0.00378
"N#Cc1cnn(C2CC(c3ccc(F)cc3)CC2N2CC(N)CC(F)C2)c1 (stereo not drawn) [Example 6, 1-[2-(3-amino-5-fluoro-1-piperidyl)-4-(4-fluorophenyl)cyclopentyl]pyrazole-4-carbonitrile]",0.00622,0.00406
"N#Cc1cnn(C2CC(c3ccc(F)cc3)CC2N2CCC(F)(F)C(N)C2)c1 (stereo not drawn) [Example 7, 1-[2-(3-amino-4,4-difluoro-1-piperidyl)-4-(4-fluorophenyl)cyclopentyl]pyrazole-4-carbonitrile]",0.0175,0.0162
"NC1CCCN(C2CC(c3ccc(F)cc3)CC2n2cccn2)C1 (stereo not drawn) [Example 8, 1-[4-(4-fluorophenyl)-2-pyrazol-1-yl-cyclopentyl]piperidin-3-amine]",0.00797,0.0028
"NC1CC(F)CN(C2CC(c3ccc(F)cc3)CC2n2cccn2)C1 (stereo not drawn) [Example 9, 5-fluoro-1-[4-(4-fluorophenyl)-2-pyrazol-1-yl-cyclopentyl]piperidin-3-amine]",0.00664,0.0034
"N[C@@H]1C[C@@H](F)CN([C@@H]2C[C@H](c3ccc(F)cc3)C[C@H]2n2cncn2)C1 [Example 10, (3R,5R)-5-fluoro-1-[(1R,2R,4S)-4-(4-fluorophenyl)-2-(1,2,4-triazol-1-yl)cyclopentyl]piperidin-3-amine]",0.016,0.0298
"NC1CC(F)CN(C2CC(c3ccc(F)cc3)CC2n2ncnn2)C1 (stereo not drawn) [Example 11, 5-fluoro-1-[4-(4-fluorophenyl)-2-(tetrazol-2-yl)cyclopentyl]piperidin-3-amine]",0.00403,0.0106
"NC1CCCN(C2CC(c3ccc(F)cc3)CC2n2ncnn2)C1 (stereo not drawn) [Example 12, 1-[4-(4-fluorophenyl)-2-(tetrazol-2-yl)cyclopentyl]piperidin-3-amine]",0.00755,0.0267
"N#Cc1ncn(C2CC(c3ccc(F)cc3)CC2N2CCCC(N)C2)n1 (stereo not drawn) [Example 13, 1-[2-(3-amino-1-piperidyl)-4-(4-fluorophenyl)cyclopentyl]-1,2,4-triazole-3-carbonitrile]",0.0143,0.0071
"N#Cc1ccc(OC2CC(c3ccc(F)c(O)c3)CC2N2CCCC(N)C2)cc1 (stereo not drawn) [Example 14, 4-[2-(3-amino-1-piperidyl)-4-(4-fluoro-3-hydroxy-phenyl)cyclopentoxy]benzonitrile]",0.0588,0.0174
"COc1cc(C2CC(Oc3ccc(C#N)cc3)C(N3CCCC(N)C3)C2)ccc1F (stereo not drawn) [Example 15, 4-[2-(3-amino-1-piperidyl)-4-(4-fluoro-3-methoxy-phenyl)cyclopentoxy]benzonitrile]",0.0225,0.00951
"N#Cc1ccc(OC2CC(c3cccc(F)c3)CC2N2CCCC(N)C2)c(Cl)c1 (stereo not drawn) [Example 16, 4-[2-(3-amino-1-piperidyl)-4-(3-fluorophenyl)cyclopentoxy]-3-chloro-benzonitrile]",0.0695,0.0193
"N#Cc1ccc(OC2CC(c3ccc(F)cc3)CC2N2CCC(F)(F)C(N)C2)cc1 (stereo not drawn) [Example 17, 4-[2-(3-amino-4,4-difluoro-1-piperidyl)-4-(4-fluorophenyl)cyclopentoxy]benzonitrile]",0.0461,0.0207
"N#Cc1ccc(OC2CC(c3ccc(F)cc3)CC2N2CC(N)CC(F)(F)C2)cc1 (stereo not drawn) [Example 18, 4-[2-(5-amino-3,3-difluoro-1-piperidyl)-4-(4-fluorophenyl)cyclopentoxy]benzonitrile]",0.0425,0.0311
"N#Cc1ccc(OC2CC(c3ccc(F)cc3)CC2N2CCCC(N)C2)cc1F (stereo not drawn) [Example 19, 4-[2-(3-amino-1-piperidyl)-4-(4-fluorophenyl)cyclopentoxy]-2-fluoro-benzonitrile]",0.0645,0.0251
"N#Cc1ccccc1OC1CC(c2ccccc2)CC1N1CCCC(N)C1 (stereo not drawn) [Example 20, 2-[2-(3-amino-1-piperidyl)-4-phenyl-cyclopentoxy]benzonitrile]",0.0388,0.0141
"N#Cc1ccc(OC2CC(c3ccccc3)CC2N2CCCC(N)C2)c(Cl)c1 (stereo not drawn) [Example 21, 4-[2-(3-amino-1-piperidyl)-4-phenyl-cyclopentoxy]-3-chloro-benzonitrile]",0.0723,0.0174
"Cc1cc(C#N)nnc1OC1CC(c2ccc(F)cc2)CC1N1CC(N)CC(F)C1 (stereo not drawn) [Example 22, 6-[2-(3-amino-5-fluoro-1-piperidyl)-4-(4-fluorophenyl)cyclopentoxy]-5-methyl-pyridazine-3-carbonitrile]",0.118,0.0288
"NC1CCCN(C2CC(c3ccc(F)cc3)CC2Oc2nnccc2Cl)C1 (stereo not drawn) [Example 23, 1-[2-(4-chloropyridazin-3-yl)oxy-4-(4-fluorophenyl)cyclopentyl]piperidin-3-amine]",0.0113,0.00656
"N#Cc1ccc(OC2CC(c3ccc(F)cc3)CC2N2CC(N)CC(F)C2)nn1 (stereo not drawn) [Example 24, 6-[2-(3-amino-5-fluoro-1-piperidyl)-4-(4-fluorophenyl)cyclopentoxy]pyridazine-3-carbonitrile]",0.0072,> 0.0118
"N[C@@H]1CCCN([C@H]2C[C@@H](c3ccc(F)cc3)C[C@@H]2Oc2cc(F)cnn2)C1 [Example 25, (R)-1-((1S,2S,4R)-4-(4-fluorophenyl)-2-(5-fluoropyridazin-3-yloxy)cyclopentyl)piperidin-3-amine]",0.209,0.00993
N#Cc1ccc(OC2CC(c3ccc(F)cc3)CC2N2CCCC(N)C2)cn1 (stereo not drawn) [Example 27],0.0507,0.022
